Where two headings read alike, the source gives them in different places.
How the values were obtained:
[1] = Copper corrosion rate with and without bleach in a cooling water environment
[2] = Solubility (turbidity) of 2% solutions at various pH; type: physicochemical; details: 2% solution in RO water
[3] = Pimephales promelas 96-Hour Definitive Toxicity Test; type: in vivo; details: Pimephales promelas, in vivo, other: waterborne exposure in test solution; composition of BDTZ
Protocol: (§1) A composition of the invention including a BDTZ tetrazole component was evaluated using the Pimephales promelas 96-Hour Definitive Toxicity Test. Pimephales promelas used to initiate this test were obtained from in-house cultures and were 1 to 14 days old at test initiation. Test organisms were maintained in 100 percent control water (reconstituted moderately hard water) prior to test initiation. The 96-Hour Definitive Test was conducted using 300 to 500 milliliter (mL) disposable polypropylene containers containing 250 ml of control water or appropriate test solution. Ten test organisms were randomly introduced into each test chamber with two replicate chambers per treatment. Each Pimephales promelas test chamber was fed 0.1 mL of a concentrated suspension of less than 24-hour old live brine shrimp nauplii (Artemia sp.) several hours prior to the 48-hour testing period.
(§2) At the 48-hour testing period, test solutions were renewed by replacing approximately 90 percent of the old solution with fresh control water or appropriate test solution. Prior to renewal of test solutions, uneaten and dead brine shrimp, along with other debris, were removed from the bottom of the test chambers. Organism survival was determined daily by enumerating live Pimephales promelas in each test chamber. Survival was defined as any body movement after gentle prodding.
(§3) The test was conducted at a temperature of 20±1° C. under fluorescent lighting with a photoperiod of 16 hours light and 8 hours dark. Water quality measurements were performed on all control and test solutions prior to test initiation and on selected treatments daily thereafter.
(§4) Following termination of the 96-Hour Definitive Test, No Observed Effect Concentration (NOEC) and a 96-hour LC50 with corresponding 95 percent confidence interval were calculated, where possible. The NOEC value was determined using the statistically appropriate method. The LC50 value estimate was determined by using one of the following statistical methods: graphical, Spearman-Karber, Trimmed Spearman-Karber, or Probit. The method selected for reporting test results was determined by the characteristics of the data; that is, the presence or absence of 0 and 100 percent mortality and the number of concentrations in which mortalities between 0 and 100 percent occurred. All statistical analyses were performed using the CETIS™ Version 1.8.5.4 software program.
(§5) The reference toxicant, sodium chloride, was used to monitor the sensitivity of the test organisms and the precision of the testing procedure. Acute reference toxicant tests are performed at least monthly and the resulting LC50 values are plotted to determine if the results are within prescribed limits.

Pimephales promelas = assay: as above; type: in vivo; details: 96-hour test
Protocol: as §1, §2, §3, §4, §5

[4] = Mild steel corrosion rate (interaction with Cu2+); details: FIG. 12; compared with no HDTZ
Text: Tetrazoles disclosed herein have a positive effect on mild steel corrosion. […] The proposed mechanism of action is suspected to be indirect: the likely interpretation is that HDTZ inactivates Cu^2+ in solution preventing the occurrence of galvanic cells on the coupon surface (lower corrosion rate), which could grow with time (stabilization of the corrosion rate).

[5] = 3 ppm inhibitor, synthetic cooling water, 38° C., three hours
[6] = average copper corrosion rate, inhibitor concentration 5 ppm, with bleach
[7] = average copper corrosion rate, inhibitor concentration 5 ppm, without bleach

CCCCc1ccc2[nH]nnc2c1 [BBT, 5-butyl-1H-benzotriazole, reference compound]
Corrosion Rate (mpy) with Bleach (1 FRC) [1, 6]: 0.0189 mpy
Corrosion Rate (mpy) without Bleach [1, 7]: 0.0024 mpy

C(CCc1nnn[nH]1)Cc1nnn[nH]1 [BDTZ, 1,4-di(1H-tetrazol-5-yl)butane]
pH above which the solution remained clear ([2]; turbidity meter): > 5.6
Corrosion Rate (mpy) with Bleach (1 FRC) [1, 6]: 0.0841 mpy
Corrosion Rate (mpy) without Bleach [1, 7]: 0.0088 mpy
LC50 at 96 h [3]: > 10000 µg/mL
Survival (%) (Pimephales promelas; composition of BDTZ, 625 mg/L as nominal): 100%
Survival (%) (Pimephales promelas; composition of BDTZ, 1,250 mg/L as nominal): 100%
Survival (%) (Pimephales promelas; composition of BDTZ, 2,500 mg/L as nominal): 100%
Survival (%) (Pimephales promelas; composition of BDTZ, 5,000 mg/L as nominal): 100%
Survival (%) (Pimephales promelas; composition of BDTZ, 10,000 mg/L as nominal): 100%
NOEC (Pimephales promelas; composition of BDTZ): 10,000 mg/L

c1ccc2[nH]nnc2c1 [BZT, 1H-benzotriazole, reference compound]
Corrosion Rate (mpy) with Bleach (1 FRC) [1, 6]: 0.1386 mpy
Corrosion Rate (mpy) without Bleach [1, 7]: 0.0032 mpy

Cc1cc2nn[nH]c2cc1Cl [CITT, 5-methyl-6-chloro-1H-benzotriazole, reference compound]
Corrosion Rate (mpy) with Bleach (1 FRC) [1, 6]: 0.0057 mpy
Corrosion Rate (mpy) without Bleach [1, 7]: 0.0028 mpy

C(CCCc1nnn[nH]1)CCc1nnn[nH]1 [HDTZ, 1,6-di(1H-tetrazol-5-yl)hexane]
Corrosion Rate (mpy) with Bleach (1 FRC) [1, 6]: 0.0204 mpy
Corrosion Rate (mpy) without Bleach [1, 7]: 0.005 mpy
melting point: 183.75 °C
effect on mild steel corrosion rate [4]: stabilize the corrosion rate

C(CCCc1nnn[nH]1)CCCc1nnn[nH]1 [HeDTZ, 1,7-di(1H-tetrazol-5-yl)heptane]
Corrosion Rate (mpy) with Bleach (1 FRC) [1, 6]: 0.027 mpy
Corrosion Rate (mpy) without Bleach [1, 7]: 0.009 mpy
melting point: 144.19 °C

C(CCCCc1nnn[nH]1)CCCc1nnn[nH]1 [ODTZ, 1,8-di(1H-tetrazol-5-yl)octane]
Corrosion Rate (mpy) with Bleach (1 FRC) [1]: 0.032 mpy
Corrosion Rate (mpy) without Bleach [1]: 0.026 mpy
% loss of inhibitor ([5]; 1 ppm ActiBrom): 0.0%
% loss of inhibitor ([5]; 1 ppm Bleach): 2.6%
% loss of inhibitor ([5]; 1 ppm STABREX): 1.6%
% loss of inhibitor ([5]; 5 ppm ActiBrom): 1.3%
% loss of inhibitor ([5]; 5 ppm Bleach): 2.6%
% loss of inhibitor ([5]; 5 ppm STABREX): 2.6%

C(CCc1nnn[nH]1)CCc1nnn[nH]1 [PeDTZ, 1,5-di(1H-tetrazol-5-yl)pentane]
Corrosion Rate (mpy) with Bleach (1 FRC) [1]: 0.145 mpy
Corrosion Rate (mpy) without Bleach [1]: 0.0012 mpy

Cc1ccc2[nH]nnc2c1 [TT, 5-methyl-1H-benzotriazole, reference compound]
pH above which soluble [2]: above 11.5
pH to get a clear solution [2]: 12.0
Corrosion Rate (mpy) with Bleach (1 FRC) [1, 6]: 0.0995 mpy
Corrosion Rate (mpy) without Bleach [1, 7]: 0.0214 mpy

hydrogenated tolyltriazole [HTT, reference compound]
Corrosion Rate (mpy) with Bleach (1 FRC) [1, 6]: 0.0187 mpy
Corrosion Rate (mpy) without Bleach [1, 7]: 0.0051 mpy

— patent publication US9771336B2, “Tetrazole based corrosion inhibitors” (Ecolab USA Inc., priority 2013, dated 2017)
